What follows are molecules tested against T1, human PGI2 receptors (hIP) (Homo sapiens, UniProt P43119) (assay: Method A: positive allosteric modulator activity, cAMP in CHO/hIP cells with 100 pM iloprost). Conditions: cAMP relative to 100 pM iloprost alone, test compound 5 uM.
T1 construct: expressed in transfected cells; host or cells: CHO-K1
Type: cell-based
Method: The positive allosteric modulator activity of a test compound was measured as a change in the amount of intracellular cyclic AMP (cAMP) in the presence of 100 pM of the IP agonist iloprost (manufactured by CAYMAN CHEMICAL), using CHO-K1 cells (CHO/hIP cells) in which human PGI2 receptors (hIP) are stably expressed.
An amount of 5 μL of a mixture (diluted in F-12 culture medium (manufactured by GIBCO) including 0.1% BSA) of iloprost dissolved in DMSO and a test compound dissolved in DMSO was dispensed in advance into a 384-well black microplate, and 5 μL of CHO/hIP cells suspended at a concentration of 1.6×10^6 cells/mL in F-12 culture medium including 0.1% BSA were added to the microplate. After 40 minutes of incubation at room temperature, the amount of cAMP was measured using a cAMP assay kit (cAMP HiRange, manufactured by Cisbio Bioassays). Specifically, 5 μL of a cAMP-d2 solution (including a cell lysate) from the kit were added and the reaction was stopped, then 5 μL of a fluorescence-labeled cAMP antibody solution from the kit was added and incubation was performed for 1 hour at room temperature, after which fluorescence was measured using a PHERAstar plate reader (manufactured by BMG) in HTRF (registered trademark) mode. The amount of cAMP in each well was calculated from a cAMP calibration curve obtained using a standard sample, and the activity of each test compound is noted below as a ratio T/C (%) based on the amount of cAMP for 100 pM of isoprost alone. All of the compounds included in this table were purchased from Asinex Corporation.

T1 sequence (P43119 whole entry): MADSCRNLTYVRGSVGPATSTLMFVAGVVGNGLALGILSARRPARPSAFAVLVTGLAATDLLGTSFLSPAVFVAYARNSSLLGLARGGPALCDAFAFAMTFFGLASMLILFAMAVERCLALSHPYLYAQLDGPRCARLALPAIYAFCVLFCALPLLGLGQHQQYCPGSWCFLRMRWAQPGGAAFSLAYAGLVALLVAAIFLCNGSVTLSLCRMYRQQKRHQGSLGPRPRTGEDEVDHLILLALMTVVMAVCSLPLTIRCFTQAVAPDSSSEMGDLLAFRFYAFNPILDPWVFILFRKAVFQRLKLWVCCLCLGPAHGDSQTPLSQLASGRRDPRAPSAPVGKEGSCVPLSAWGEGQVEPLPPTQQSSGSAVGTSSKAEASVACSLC

T/C % [%]	Compound
90	COc1ccc(C(c2nnnn2Cc2ccccc2)N2CCc3ccccc3C2)cc1OC (stereo not shown)
104	Cc1ccc(S(=O)(=O)Cn2nnnc2C(c2ccc(O)cc2)N2CCc3ccccc3C2)cc1 (stereo not shown)

Second part, the molecule before the results:

Compound	T/C % [%]
CC(C)(C)n1nnnc1C(c1ccccc1)N1CCc2ccccc2C1 (stereo not shown) [drawing 104]	143
CC(C)(C)n1nnnc1C(c1ccc(Cl)cc1)N1CCc2ccccc2C1 (stereo not shown) [drawing 118]	113
Cc1ccc(C(c2nnnn2C(C)(C)C)N2CCc3ccccc3C2)cc1 (stereo not shown) [drawing 143]	112

Same assay, conditions: cAMP relative to 100 pM iloprost alone, test compound 10 uM

T/C % [%]	Compound
117	Cc1ccc(Cn2nnnc2C(c2ccccc2)N2CCc3ccccc3C2)cc1 (stereo not shown)
101	COc1ccc(C(c2nnnn2CS(=O)(=O)c2ccc(C)cc2)N2CCc3ccccc3C2)cc1 (stereo not shown)
112	c1ccc(Cn2nnnc2C(c2ccccc2)N2CCc3ccccc3C2)cc1 (stereo not shown)
103	COc1ccc(C(c2nnnn2Cc2ccccc2)N2CCc3ccccc3C2)c(OC)c1 (stereo not shown)
90	COc1ccc(OC)c(C(c2nnnn2Cc2ccccc2)N2CCc3ccccc3C2)c1 (stereo not shown)
91	COc1ccc(OC)c(C(c2nnnn2Cc2ccc(C)cc2)N2CCc3ccccc3C2)c1 (stereo not shown)
109	Cc1ccc(Cn2nnnc2C(c2ccc(Cl)cc2)N2CCc3ccccc3C2)cc1 (stereo not shown)
108	Cc1ccc(C(c2nnnn2CCc2ccccc2)N2CCc3ccccc3C2)cc1 (stereo not shown)
113	Oc1ccc(C(c2nnnn2Cc2ccc(F)cc2)N2CCc3ccccc3C2)cc1 (stereo not shown)
94	COc1cc(C(c2nnnn2Cc2ccccc2)N2CCc3ccccc3C2)ccc1O (stereo not shown)
91	COc1cc(C(c2nnnn2Cc2ccc(F)cc2)N2CCc3ccccc3C2)ccc1O (stereo not shown)
117	Cc1ccc(C(c2nnnn2Cc2ccc(F)cc2)N2CCc3ccccc3C2)cc1 (stereo not shown)
104	COc1ccc(Cn2nnnc2C(c2ccccc2)N2CCc3ccccc3C2)cc1 (stereo not shown)
106	Cc1ccc(Cn2nnnc2C(c2ccc(F)cc2)N2CCc3ccccc3C2)cc1 (stereo not shown)
110	COc1ccc(C(c2nnnn2Cc2ccccc2)N2CCc3ccccc3C2)cc1 (stereo not shown)
105	COc1ccc(Cn2nnnc2C(c2ccc(OC)cc2)N2CCc3ccccc3C2)cc1 (stereo not shown)
96	COc1ccc(C(c2nnnn2Cc2ccc(F)cc2)N2CCc3ccccc3C2)cc1OC (stereo not shown)
114	COc1ccc(C(c2nnnn2CCc2ccccc2)N2CCc3ccccc3C2)cc1 (stereo not shown)
112	COc1ccc(C(c2nnnn2Cc2ccc(C)cc2)N2CCc3ccccc3C2)cc1 (stereo not shown)
93	Cc1ccc(S(=O)(=O)Cn2nnnc2C(c2ccc(F)cc2)N2CCc3ccccc3C2)cc1 (stereo not shown)
102	Cc1ccc(S(=O)(=O)Cn2nnnc2C(c2ccc(C(F)(F)F)cc2)N2CCc3ccccc3C2)cc1 (stereo not shown)
112	Cc1ccc(C(c2nnnn2Cc2ccccc2)N2CCc3ccccc3C2)cc1 (stereo not shown) [drawing 121]
102	Cc1ccc(C(c2nnnn2Cc2ccccc2)N2CCc3ccccc3C2)cc1 (stereo not shown) [drawing 140]
103	Cc1ccc(C(c2nnnn2Cc2ccccc2)N2CCc3ccccc3C2)cc1 (stereo not shown) [drawing 151]

More lines, now with the values behind:

Compound	T/C % [%]
CCC(C)(C)n1nnnc1C(c1ccccc1)N1CCc2ccccc2C1 (stereo not shown)	202
CN(C)c1ccc(C(c2nnnn2C2CCCC2)N2CCc3ccccc3C2)cc1 (stereo not shown)	103
COc1ccc(OC)c(C(c2nnnn2C(C)(C)C)N2CCc3ccccc3C2)c1 (stereo not shown)	100
Cc1ccc(C(c2nnnn2C2CCCCC2)N2CCc3ccccc3C2)cc1 (stereo not shown)	100
Clc1ccc(C(c2nnnn2C2CCCC2)N2CCc3ccccc3C2)cc1 (stereo not shown)	110
COc1ccc(C(c2nnnn2C(C)(C)C)N2CCc3ccccc3C2)cc1OC (stereo not shown)	103
CCC(C)(C)n1nnnc1C(c1ccc(OC)c(OC)c1)N1CCc2ccccc2C1 (stereo not shown)	103
COc1ccc(C(c2nnnn2CCc2ccccc2)N2CCc3ccccc3C2)c(OC)c1 (stereo not shown)	106
Fc1ccc(C(c2nnnn2C2CCCCC2)N2CCc3ccccc3C2)cc1 (stereo not shown)	104
CCC(C)(C)n1nnnc1C(c1ccc(Cl)cc1)N1CCc2ccccc2C1 (stereo not shown)	148
CCC(C)(C)n1nnnc1C(c1ccc(F)cc1)N1CCc2ccccc2C1 (stereo not shown)	155
COc1ccc(C(c2nnnn2CCc2ccccc2)N2CCc3ccccc3C2)cc1OC (stereo not shown)	106
COCCn1nnnc1C(c1ccc(O)cc1OC)N1CCc2ccccc2C1 (stereo not shown)	97
COc1ccc(OC)c(C(c2nnnn2C2CCCCC2)N2CCc3ccccc3C2)c1 (stereo not shown)	82
COCCn1nnnc1C(c1cc(OC)ccc1OC)N1CCc2ccccc2C1 (stereo not shown)	90
Oc1ccc(C(c2nnnn2C2CCCCC2)N2CCc3ccccc3C2)cc1 (stereo not shown)	104
COc1cc(C(c2nnnn2C2CCCCC2)N2CCc3ccccc3C2)ccc1O (stereo not shown)	97
COc1cc(C(c2nnnn2CCc2ccccc2)N2CCc3ccccc3C2)ccc1O (stereo not shown)	91
Cc1ccc(C(c2nnnn2C2CCCC2)N2CCc3ccccc3C2)cc1 (stereo not shown)	105

Compound	T/C % [%]
Fc1ccc(C(c2nnnn2CCc2ccccc2)N2CCc3ccccc3C2)cc1 (stereo not shown)	103
COc1ccc(C(c2nnnn2C2CCCCC2)N2CCc3ccccc3C2)cc1OC (stereo not shown)	87
COc1ccc(C(c2nnnn2C2CCCC2)N2CCc3ccccc3C2)cc1OC (stereo not shown)	93
COc1ccc(C(c2nnnn2C2CCCCC2)N2CCc3ccccc3C2)cc1 (stereo not shown)	111
Fc1ccc(C(c2nnnn2C2CCCC2)N2CCc3ccccc3C2)cc1 (stereo not shown)	108
COc1ccc(OC)c(C(c2nnnn2CCc2ccccc2)N2CCc3ccccc3C2)c1 (stereo not shown)	78
CCC(C)(C)n1nnnc1C(c1ccc(O)c(OC)c1)N1CCc2ccccc2C1 (stereo not shown)	122
Oc1ccc(C(c2nnnn2C2CCCC2)N2CCc3ccccc3C2)cc1 (stereo not shown)	105
COc1ccc(C(c2nnnn2C2CCCCC2)N2CCc3ccccc3C2)c(OC)c1 (stereo not shown)	113
COc1ccc(OC)c(C(c2nnnn2C2CCCC2)N2CCc3ccccc3C2)c1 (stereo not shown)	92
COCCn1nnnc1C(c1ccc(F)cc1)N1CCc2ccccc2C1 (stereo not shown)	96
COCCn1nnnc1C(c1ccc(OC)c(OC)c1)N1CCc2ccccc2C1 (stereo not shown)	98
CCC(C)(C)n1nnnc1C(c1cc(OC)ccc1O)N1CCc2ccccc2C1 (stereo not shown)	100
CCC(C)(C)n1nnnc1C(c1ccccc1OC)N1CCc2ccccc2C1 (stereo not shown)	215
COCCn1nnnc1C(c1ccccc1OC)N1CCc2ccccc2C1 (stereo not shown)	107
c1ccc(CCn2nnnc2C(c2ccccc2)N2CCc3ccccc3C2)cc1 (stereo not shown) [drawing 106]	128
c1ccc(C(c2nnnn2C2CCCCC2)N2CCc3ccccc3C2)cc1 (stereo not shown) [drawing 120]	112
c1ccc(C(c2nnnn2C2CCCCC2)N2CCc3ccccc3C2)cc1 (stereo not shown) [drawing 138]	98
c1ccc(CCn2nnnc2C(c2ccccc2)N2CCc3ccccc3C2)cc1 (stereo not shown) [drawing 142]	111

What follows are molecules tested against T1, human PGI2 receptors (hIP) (assay: Method C: effect on epoprostenol-cAMP production curve in CHO/hIP cells (left shift value)). Conditions: Table 4, concentration of test compound that halves the EC50 of epoprostenol.
Type: cell-based
Method: The effect of a test compound on the cAMP production curve with respect to the IP agonist epoprostenol (manufactured by GlaxoSmithKline) was investigated using CHO-K1 cells (CHO/hIP cells) in which human PGI2 receptors (hIP) are stably expressed.
An amount of 5 μL of a mixture (diluted in F-12 culture medium (manufactured by GIBCO) including 0.1% BSA) of epoprostenol dissolved in DMSO and a test compound dissolved in DMSO was dispensed in advance into a 384-well black microplate, and 5 μL of CHO/hIP cells suspended at a concentration of 1.4×10^6 cells/mL in F-12 culture medium including 0.1% BSA were added to the microplate. After 40 minutes of incubation at room temperature, the amount of cAMP was measured using a cAMP assay kit (cAMP HiRange, manufactured by Cisbio Bioassays). Specifically, 5 μL of a cAMP-d2 solution (including a cell lysate) from the kit were added and the reaction was stopped, then 5 μL of a fluorescence-labeled cAMP antibody solution from the kit were added and incubation was performed for 1 hour at room temperature, after which fluorescence was measured using a PHERAstar plate reader (manufactured by BMG) in HTRF (registered trademark) mode. The amount of cAMP in each well was calculated from a cAMP calibration curve obtained using a standard sample, and an epoprostenol-cAMP production curve for the presence of various concentrations of the test compound was created.

left shift value [µM]	Compound
4.3	CCCOc1ccccc1C(c1nnnn1C(C)(C)C)N1CCc2ccccc2C1 (stereo not shown) [Example 52]
7.2	CC(C)(C)n1nnnc1C(c1ccccc1Cl)N1CCc2ccccc2C1 (stereo not shown) [Example 53]
35	Cc1ccccc1C(c1nnnn1C(C)(C)C)N1CCc2ccccc2C1 (stereo not shown) [Example 55]

Same assay, conditions: Table 5, concentration of test compound that halves the EC50 of epoprostenol

left shift value [µM]	Compound
16.1	CC(C)(C)n1nnnc1C(c1ccccc1)N1CCc2sccc2C1 (stereo not shown) [Example 59, 5-((1-(tert-butyl)-1H-tetrazol-5-yl)(phenyl)methyl)-4,5,6,7-tetrahydrothieno[3,2-c]pyridine]
10.5	COc1ccccc1C(c1nnnn1C(C)(C)C)N1CCc2sccc2C1 (stereo not shown) [Example 60, 5-((1-(tert-butyl)-1H-tetrazol-5-yl)(2-methoxyphenyl)methyl)-4,5,6,7-tetrahydrothieno[3,2-c]pyridine]
12.2	CC(C)(C)n1nnnc1C(c1cccs1)N1CCc2sccc2C1 (stereo not shown) [Example 62, 5-((1-(tert-butyl)-1H-tetrazol-5-yl)(thiophen-2-yl)methyl)-4,5,6,7-tetrahydrothieno[3,2-c]pyridine]

Source: US20160368895A1, “PULMONARY HYPERTENSION TREATING AGENT” (THE UNIVERSITY OF TOKYO, priority 2013, published 2016)
